Results taken from PMC12032302, “A20 attenuates oxidized self-DNA-mediated inflammation in acute kidney injury” (Signal Transduction and Targeted Therapy, 2025).
Entries after “also recorded” stand apart in the source; their conditions may differ. Residues, ends and D or L forms follow the SMILES beside them.

How the values were obtained:
[1] = test system: AKI mice; experiment: survival of AKI mice; format: in vivo, mouse; settings: Cis-treated mice; A20-derived peptide 15 mg/kg i.p., pretreated; n = 10 per group
Procedure: Aristolochic acid I sodium salt was dissolved in PBS to 1 mg/mL and injected intraperitoneally at a dose of 10 mg/kg (body weight) every 24 h for 3 days; cisplatin was dissolved in PBS to 1.5 mg/mL for one-time intraperitoneal 25 mg/kg injection; LPS (Sigma, Cat#L2630) was dissolved in PBS to 2.5 mg/mL for one-time intraperitoneal 25 mg/kg injection; deoxyribonuclease I (DNase I, Sigma, Cat#SLBV1446) was dissolved in PBS to 1 mg/mL and injected intraperitoneally at a dose of 10 mg/kg at 4 h before cisplatin or AA I injection and every 24 h after injection. Disulfiram (MedChemExpress, CAS:97-77-8) was diluted in corn oil to 12.5 mg/mL and injected 50 mg/kg intraperitoneally every 24 h after cisplatin or AA I administration. Cu(II) (Sigma, Cat#344419) was dissolved in PBS to 30 µg/mL and administered intraperitoneally 6 h before disulfiram at a dose of 0.15 mg/kg; TNF-α (Peprotech, Cat#315-01 A) was dissolved in PBS to 10 µg/mL and injected at 100 µg/kg once through the caudal vein 24 h before cisplatin injection. Metformin (Sigma, Cat#D150959) was dissolved in PBS to 5 mg/mL and injected intraperitoneally at a dose of 50 mg/kg 24 h before cisplatin or AA I injection and every 24 h after injection. MCC950 (MedChem Express, CAS:256373-96-3) was dissolved in PBS to 5 mg/mL and injected intraperitoneally at a dose of 50 mg/kg 12 h before cisplatin or AA I injection and every 12 h after injection; berberine (APExBIO, Cat#N1368) was dissolved in PBS to 5 mg/mL and 5 mg/kg injected intraperitoneally at 36, 24 and 12 h before cisplatin; A20-derived-peptide was dissolved in ddH2O to 3 mg/mL and injected intraperitoneally at a dose of 15 mg/kg 1 h before cisplatin. To supervise the effects of various treatments on survival time and rate, the mice were observed, and survival curves were generated. To investigate the specific mechanisms, whole blood was retrieved from the orbit, serum was separated through centrifugation on the 4th day, and the mice were then sacrificed by cervical dislocation. Mice were randomly assigned in experiments, while there was no blinding during the animal experiments.

[2] = test system: NEK7 and NLRP3 complex; experiment: interaction of NEK7 and NLRP3 complex; format: binding
Procedure: Cells were lysed in mild lysis buffer with a protease inhibitor cocktail (Cell Signaling Technology, Cat#5872S) on ice for 10 min to perform the coimmunoprecipitation (co-IP) assay. Samples were then centrifuged at 12,000 rpm at 4 °C for 10 min, and the supernatant was incubated with the corresponding primary antibody (anti-HA, 1:100, Cell Signaling Technology, Cat#3724S) overnight at 4 °C. On the next day, magnetic beads were added and incubated for 1 h. The immunocoprecipitated protein was washed three times by MLB and then heated with 4× Laemmli loading buffer at 100 °C for 10 min. Samples were then subjected to western blot analysis.

[3] = test system: AKI mice; experiment: serum creatinine of AKI mice; format: in vivo, mouse; settings: Cis-treated mice; A20-derived peptide 15 mg/kg i.p., pretreated; n = 5
Procedure: LPS (Sigma, Cat#L2630) was dissolved in PBS to 2.5 mg/mL for one-time intraperitoneal 25 mg/kg injection; deoxyribonuclease I (DNase I, Sigma, Cat#SLBV1446) was dissolved in PBS to 1 mg/mL and injected intraperitoneally at a dose of 10 mg/kg at 4 h before cisplatin or AA I injection and every 24 h after injection. Disulfiram (MedChemExpress, CAS:97-77-8) was diluted in corn oil to 12.5 mg/mL and injected 50 mg/kg intraperitoneally every 24 h after cisplatin or AA I administration. Cu(II) (Sigma, Cat#344419) was dissolved in PBS to 30 µg/mL and administered intraperitoneally 6 h before disulfiram at a dose of 0.15 mg/kg; TNF-α (Peprotech, Cat#315-01 A) was dissolved in PBS to 10 µg/mL and injected at 100 µg/kg once through the caudal vein 24 h before cisplatin injection. […] MCC950 (MedChem Express, CAS:256373-96-3) was dissolved in PBS to 5 mg/mL and injected intraperitoneally at a dose of 50 mg/kg 12 h before cisplatin or AA I injection and every 12 h after injection; berberine (APExBIO, Cat#N1368) was dissolved in PBS to 5 mg/mL and 5 mg/kg injected intraperitoneally at 36, 24 and 12 h before cisplatin; […] To supervise the effects of various treatments on survival time and rate, the mice were observed, and survival curves were generated. To investigate the specific mechanisms, whole blood was retrieved from the orbit, serum was separated through centrifugation on the 4th day, and the mice were then sacrificed by cervical dislocation. Mice were randomly assigned in experiments, while there was no blinding during the animal experiments. Renal function was evaluated based on serum creatinine level and histological features. Serum creatinine was determined in the Clinical Pharmacology Lab, Clinical Trial Center, WCH, SCU. The kidneys were extracted from euthanized mice, immediately fixed with 4% paraformaldehyde, and embedded in paraffin. Furthermore, the samples were cut into 5 µm thick sections. These tissue samples were subjected to hematoxylin-eosin (HE) and […] according to standard protocols with HE reagent (Biosharp, Cat#BL702B, BL703B) and Masson reagent (Servicebio, Cat#G1006-100ML). The pathological changes were detected through optical microscopy, and the tubulointerstitial injury score was determined as previously reported.

In the case of `CSCC[C@H](NC(=O)[C@H](Cc1ccc(O)cc1)NC(=O)[C@H](CCC(N)=O)NC(=O)[C@H](CS)NC(=O)[C@H](C)NC(=O)[C@H](C)NC(=O)[C@H](Cc1c[nH]cn1)NC(=O)[C@H](CCSC)NC(=O)[C@H](CC(C)C)NC(=O)[C@H](CS)NC(=O)[C@H](CC(N)=O)NC(=O)CNC(=O)[C@H](CC(=O)O)NC(=O)CNC(=O)[C@H](CC(N)=O)NC(=O)[C@@H](NC(=O)[C@H](CCCCN)NC(=O)[C@H](CC(C)C)NC(=O)[C@H](C)NC(=O)[C@@H](NC(=O)[C@H](CC(C)C)NC(=O)[C@@H](N)CCCCN)C(C)C)[C@@H](C)O)C(=O)N[C@@H](Cc1c[nH]c2ccccc12)C(=O)NCC(=O)N[C@H](C(=O)N[C@@H](CCC(N)=O)C(=O)N[C@@H](CC(=O)O)C(=O)N[C@H](C(=O)N[C@@H](CC(=O)O)C(=O)O)[C@@H](C)O)C(C)C` [P-II] (H-KLVALKTNGDGNCLMHAACQYMWGVQDTD-OH; N-terminus and C-terminus assumed), the survival [1] is reported as “improved the survival of mice”, the “interference with NEK7-NLRP3 interaction” value [2] is reported as “interfere with the interaction between NEK7 and NLRP3 through Lys140 of NEK7; also recorded: interfering the binding of NEK7 to NLRP3 complex” and the “serum creatinine (in words)” value [3] is reported as “alleviated the serum creatinine”.
